Converted amounts (≈) assume the structure as drawn.
details: buffer; pH 7.4; 200.0 µM

Structure (SMILES) | solubility kinetic [µg/mL]
O=C(Cc1ccccc1)NCC(=O)OCc1cccc([N+](=O)[O-])c1 | > 49.2
O=C(Nc1cccc(Cl)c1Cl)C1CCCO1 (centres undefined) | 26.7 (≈ 103 µM)
O=C(OC(C(=O)NC1CCCCC1)c1ccccc1F)c1ccco1 (centres undefined) | 41.6 (≈ 120 µM)
Cc1ccc(-n2c3nc(=O)n(C)c(=O)c-3cc3ccccc32)cc1 | 12.3 (≈ 38.8 µM)
CCC(C)(C)NC(=O)CCCSc1nc2ccccc2[nH]1 | 28.7 (≈ 94 µM)
O=C(Nc1cccc2c1CCCC2)c1ccccc1Cl | 1.8 (≈ 6.3 µM)
CC(C)NS(=O)(=O)c1ccc(NC(=O)Cc2ccsc2)cc1 | > 50.8
O=C(CNC(=O)c1ccccc1)NCC(c1ccco1)N1CCCC1 (centres undefined) | > 51.2
Cc1c(C(=O)NN2CCOCC2)cccc1[N+](=O)[O-] | > 39.8
Cc1cc(NC(=O)c2ccc([N+](=O)[O-])cc2)no1 | < 0.2
O=C1NC(=O)/C(=C\c2ccc(OCc3ccccc3)cc2)S1 | < 0.7
Cc1ccc(NC(=O)N2CCCC2c2cccs2)cc1 (centres undefined) | > 43
Cc1cc(Nc2ccc(N3CCOCC3)cc2)c2cccc(C)c2n1.Cl | 55
Cc1ccccc1NC(=O)c1cccc(C(=O)Nc2ccccc2C)n1 | 0.3 (≈ 0.869 µM)
O=C(O)/C=C/C(=O)NCCc1ccc(Cl)cc1 | > 38.1
O=C(NCN1CCOCC1)c1cnccn1 | 30.6 (≈ 138 µM)
CN(C)c1cc(Nc2ccc(O)cc2)c([N+](=O)[O-])c2nonc12 | 0.7 (≈ 2.22 µM)
O=C(CN1C(=O)NC2(CCCCCCC2)C1=O)Nc1ccc(OC(F)F)cc1 | 20.8 (≈ 52.6 µM)
COc1ccccc1N(C)S(=O)(=O)c1ccc(Cl)c(C(=O)NCc2ccco2)c1 | 47.5 (≈ 109 µM)
Cc1ccc2cc3c(nc2c1)OCC3 | > 27.8
COc1cc2ccccc2cc1C(=O)Nc1cc(C)ccn1 | 4.2 (≈ 14.4 µM)
CC(=O)c1ccc(NC(=O)COC(=O)CCC2CCCC2)cc1 | 17 (≈ 53.6 µM)
CCOC(=O)C1=C(C)Nc2ccccc2S1 | 17.9 (≈ 76.1 µM)
O=[N+]([O-])c1ccc(S(=O)(=O)NCCc2ccncc2)cc1 | 12.8 (≈ 41.6 µM)

Structure (SMILES) | solubility kinetic [µg/mL]
COc1cccc(CNC(=O)C(Cc2ccccc2)n2cccc2)c1 (centres undefined) | 29.7 (≈ 88.8 µM)
O=C(Nc1ccc(Cl)cc1)Nc1ccc2c(c1)OCO2 | 0.4 (≈ 1.38 µM)
Cn1cnnc1Sc1ccc(S(C)(=O)=O)cc1[N+](=O)[O-] | > 47.1
Cc1cccc(CS(=O)(=O)c2ncc(CO)n2C)c1 | > 42.1
CC(C)CCNC(=O)CSc1nc2ccccc2s1 | 38.6 (≈ 131 µM)
CC(C)Cc1ccc(C(C)NC(=O)c2ccc(=O)[nH]c2)cc1 (centres undefined) | 10 (≈ 33.5 µM)
Cn1cc(Br)c(-c2cccc(N3C(=O)CCCC3=O)c2)n1 | > 52.2
Cc1ccc(C)c(C(=O)c2ccccc2NC(=O)c2ccccn2)c1 | < 0.4
O=S(=O)(NCc1ccc2c(c1)OCO2)c1ccccc1F | 37.1 (≈ 120 µM)
O=C(CCSCc1ccccc1)Nc1ccc2c(c1)OCCO2 | 33.8 (≈ 103 µM)
COc1cc2c(cc1OC)C(c1ccccc1)NCC2 (centres undefined) | > 40.4
CCOC(=O)C1CCCN(CCc2ccccc2)C1 (centres undefined) | 32.1 (≈ 123 µM)
CCc1ccc(NC(=O)Nc2ccc3c(c2)CCC3)cc1 | < 0.3
Cc1cccc(Cn2c(C)nc3ccc([N+](=O)[O-])cc3c2=O)c1 | 3.6 (≈ 11.6 µM)
COC(=O)c1cccnc1NC(=S)NC(C)C | 7.1 (≈ 28 µM)
CC(OC(=O)C1=COCCO1)C(=O)Nc1ccc(Cl)cn1 (centres undefined) | > 46.9
N#C/C(=C\c1ccc(F)c(Cl)c1)S(=O)(=O)c1ccccn1 | 44 (≈ 136 µM)
Cc1cc(NC(=O)COC(=O)C2CSC3(C)CCC(=O)N23)ccc1Br (centres undefined) | > 64.1
Cc1ccc(SCC(=O)Nc2cccc(C)c2)cc1 | 0.8 (≈ 2.95 µM)
COc1cc(OC)cc(C(=O)NCC(=O)N2CCN(Cc3ccccc3)CC2)c1 | > 59.6
CC12CC3CC(C)(C1)CC(C(O)CN1CCOCC1)(C3)C2.Cl (centres undefined) | > 49.5
O=C(COC(=O)/C=C/c1ccc(Cl)cc1)NC1CCCC1 | 3.5 (≈ 11.4 µM)
Cc1ccc(NC(=O)CCCN2C(=O)NC(C)(C)C2=O)cc1 | 38.7 (≈ 128 µM)
Cc1cc(=O)n(-c2ccc(Cl)cc2)c(=O)[nH]1 | > 35.5

Structure (SMILES) | solubility kinetic [µg/mL]
Cn1ccnc1SCC(=O)c1cccc(C(F)(F)F)c1 | > 45
COc1cccc(-c2c(C#N)c(N)nc3c2c(=O)nc2sccn23)c1 | 23 (≈ 65.8 µM)
Cc1ccc(S(=O)(=O)NCCc2nc3ccccc3[nH]2)cc1 | 36.3 (≈ 115 µM)
CC(=O)c1c(C)[nH]c(C(=O)CSc2ccc(F)cc2)c1C | 2.5 (≈ 8.19 µM)
Cc1noc(/C=C/c2ccccn2)c1[N+](=O)[O-] | 19.3 (≈ 83.5 µM)
Cc1nn(CC(=O)NC(C)c2ccccc2)c(C)c1[N+](=O)[O-] (centres undefined) | > 45.3
CCOCCCNC(=O)C1CCCN1C(=O)Nc1ccccc1[N+](=O)[O-] (centres undefined) | > 54.7
CCCNc1nc(N2CCCC2)nc(N2CCCC2)n1 | 33.6 (≈ 122 µM)
CCCn1c(C(O)c2ccc(C)cc2)nc2ccccc21 (centres undefined) | 15.9 (≈ 56.7 µM)
COc1ccc(C(C)NC(=O)C23CC4CC(CC(C4)C2)C3)cc1OC (centres undefined) | 40.2 (≈ 117 µM)
CC(Sc1nc(N)cc(=O)[nH]1)C(=O)N1CCOCC1 (centres undefined) | > 42.6
CC(C)N(C(=O)Cc1ccccc1[N+](=O)[O-])C(C)C | > 39.6
Cc1cccc(NC(=S)NCC(C)CSc2ccc(Cl)cc2)c1 (centres undefined) | < 0.4
O=C(O)c1cccc(S(=O)(=O)Nc2ccc3c(c2)CCC3)c1 | > 47.6
O=C(O)COCC(=O)Nc1ccc2c(c1)oc1ccccc12 | > 44.9
O=c1oc2ccccc2n1Cc1cccc(C(F)(F)F)c1 | 2.2 (≈ 7.5 µM)
O=C(CSc1cccc[n+]1[O-])Nc1ccccc1C(F)(F)F | > 49.2
CCOC(=O)CCn1c(=S)n(CCC(=O)OCC)c2ccccc21 | 49.5 (≈ 141 µM)
COc1ccc(C(=O)CCNc2ccc(F)cc2)cc1 | < 0.6
Cc1ccc(S(=O)(=O)N2CCCCC2)cc1NC(=O)CN1C(=O)c2ccccc2S1(=O)=O | 20.7 (≈ 43.3 µM)
Cc1cccc(C)c1NC(=O)C1CCN(C(=O)c2cccs2)CC1 | 39.1 (≈ 114 µM)
O=C(c1cc(-c2ccccc2)on1)N1CCCCCC1 | 39.1 (≈ 145 µM)
CC(Oc1ccccc1)C(=O)N1CCN=C1SCc1ccccc1 (centres undefined) | 19.9 (≈ 58.5 µM)
O=C(NC(=S)Nc1ccccc1Cl)C1CC1 | > 38.2

Structure (SMILES) | solubility kinetic [µg/mL]
CC(C)c1ccc(C(=O)OCC(=O)NC2CCCC2)cc1 | 11.8 (≈ 40.8 µM)
CC(C)Oc1cc(C(=O)NC2CCCCC2)c2ccccc2n1 | 1.4 (≈ 4.48 µM)
C=CCNC(=O)/C(C#N)=C/c1ccc(C(=O)O)cc1 | > 38.4
CCCCNC(=S)Nc1ccc(C(F)(F)F)cc1 | 15.7 (≈ 56.8 µM)
COc1ccc(C2CC(=O)N(c3ccccc3)C3=C2C(=O)CCC3)cc1 (centres undefined) | 48.9 (≈ 141 µM)
COc1cc(C(=O)N2C[C@H]3C[C@@H](C2)c2cccc(=O)n2C3)cc(OC)c1OC | > 57.7
Cn1c(=O)c2c(ncn2CCOc2ccc(F)cc2)n(C)c1=O | 13.9 (≈ 43.7 µM)
CCOc1ccc(-n2c([O-])cc(=O)[nH]c2=O)cc1.[NH4+] | 35.2
COC(=O)c1ccc(CN(C)S(=O)(=O)c2cccs2)cc1 | 2.6 (≈ 7.99 µM)
CN1CCN2c3ccccc3Cc3ccccc3C2C1.Cl (centres undefined) | > 45.1
CC(=O)c1cccc(NC(=O)C(CC(C)C)NC(=O)C2CCCCC2)c1 (centres undefined) | 20.2 (≈ 56.3 µM)
CC(OC(=O)COc1ccc(C#N)cc1)C(=O)c1ccccc1 (centres undefined) | > 46.4
C=CC[n+]1ccc(/C=C2\C=Cc3cc(C)ccc3N2CC)c2ccccc21.[Br-] | > 53
CCN(CC)c1ccc(NC(=O)CN(C)Cc2cccs2)cc1 | 39.1 (≈ 118 µM)
CCOCCCNCc1cc(Cl)cc(Cl)c1OCC.Cl | 44
Cc1c(Cl)cccc1NC(=S)Nc1ccc(S(=O)(=O)Nc2ncccn2)cc1 | 64.9 (≈ 150 µM)
CCOC(=O)NC(=S)Nc1ccc(OC)cc1 | 25.6 (≈ 101 µM)
O=C1/C(=C/c2ccncc2)SC(=S)N1Cc1ccccc1 | 1.7 (≈ 5.44 µM)
O=C(COC(=O)C1(c2ccccc2)CCCC1)N1CCNC1=O | > 47.5
CNC(=O)CSc1nccn1Cc1ccc(Cl)cc1 | > 44.4
Cc1ccc(N=C2NC(=O)/C(=C/c3cccn3C)S2)cc1C | 0.9 (≈ 2.89 µM)
Cc1ccc2c(CN3CCCCC3C)cc(=O)oc2c1C.Cl (centres undefined) | 20.9
Cc1ccc2ncccc2c1N | > 23.7
CCCCCCC(Cl)(Cn1ccnc1)c1ccccc1.O=[N+]([O-])O (centres undefined) | 35.3

Structure (SMILES) | solubility kinetic [µg/mL]
Cc1csc(=O)n1CC(=O)Nc1nc2ccccc2s1 | > 45.8
Cc1ccccc1-c1nc(CN2CCSCC2)c(C)o1 | 26.1 (≈ 90.5 µM)
NC(=O)CCn1cnc2ccccc21 | 25.5 (≈ 135 µM)
Cc1cccc(C(=O)Nc2scc(-c3ccc(Br)cc3)c2C(=O)O)c1 | 3.6 (≈ 8.65 µM)
O=C(COC(=O)c1ccc(O)cc1O)NC1CC1 | > 37.7
COc1ccc(C2=NOC(CNC(=S)N3CCOCC3)C2)cc1 (centres undefined) | 12.8 (≈ 38.2 µM)
COc1ccc(C(=O)Nc2cccc(S(=O)(=O)N(C)C)c2)cc1S(=O)(=O)N1CCOCC1 | 12.3 (≈ 25.4 µM)
O=C(NCc1cccnc1)Nc1ccc(Cl)cc1Cl | > 44.4
COC(=O)c1c(NC(=O)C2CC(C)=C(C)CC2C(=O)O)sc2c1CCCCC2 (centres undefined) | 58.1 (≈ 143 µM)
S=C1NC2(CCCC2)Nc2ccccc21 | 32.5 (≈ 149 µM)
Cc1ccc(C)c(NC(=O)CCN2CC(C)CC(C)C2)c1 (centres undefined) | 32.7 (≈ 113 µM)
Cl.Nc1ccc(-c2nc3c(ccc4ccccc43)[nH]2)cc1 | > 44.4
CCCCCn1c(N2CCCC2)nc2c1c(=O)n(C)c(=O)n2C | > 47.9
O=C(NCCC1=CCCCC1)c1c(O)nc2ccccn2c1=O | 8.7 (≈ 27.8 µM)
COc1ccc2[nH]c(C(=O)N(Cc3ccccn3)Cc3ccccn3)cc2c1 | > 55.9
CC(C)c1ccc(S(=O)(=O)Nc2ccc3c(c2)OCO3)cc1 | 26.4 (≈ 82.7 µM)
COC(=O)C1=C(N)OC2=C(C(=O)CCC2)C1c1cccnc1 (centres undefined) | 42.7 (≈ 142 µM)
O=C(/C=C/c1ccc([N+](=O)[O-])s1)N1CCCC1 | > 37.8
COc1cc(OC)cc(C(=O)Nc2nnc(-c3cccnc3)o2)c1 | > 48.9
Cc1ccc(S(=O)(=O)Nc2cnc3ccccc3c2)cc1 | > 44.8
COc1cccc(N=C2CC(C)(C)CC(=O)/C2=C(/O)c2ccccc2)c1 | 0.9 (≈ 2.58 µM)
CNS(=O)(=O)c1cccc(C(=O)NCC(C)(C)N2CCCCC2)c1 | 48.8 (≈ 138 µM)
CCOc1ncccc1C(=O)OCC(=O)Nc1ccc(Cl)cn1 | 15 (≈ 44.7 µM)
